Source: patent US10221129B2, “Inhibitors of human immunodeficiency virus replication” (ViiV HEALTHCARE UK (NO.5) LIMITED, priority 2015, dated 2019)

How the values were obtained:
[1] = test system: recombinant NL4-3 virus (nef section replaced with Renilla luciferase gene) in MT-2 cells; test: HIV cell culture assay (antiviral activity, luciferase readout); assay type: cell-based; conditions: Renilla, NL43, MT-2 cells infected for 4-5 days with recombinant NL4-3 Renilla luciferase virus
Method in brief: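 Serial compound dilutions tested in MT-2 cells infected for 4-5 days with 293T-derived NL4-3 virus carrying Renilla luciferase in place of part of nef. Antiviral activity quantified as luciferase activity, read with a live-cell substrate.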

[2] = Compound cytotoxicity, XTT-based colorimetric assay; assay type: cell-based; conditions: human, uninfected MT2 cells, day 4, XTT
Method in brief: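 Run under the antiviral-assay protocol but without virus. Viability was read on day 4 and CC50 values were derived from the readout.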

| Compound | EC50 [1] [nM] | CC50 at 4 days [2] [nM] |
| --- | --- | --- |
| CN(C(=O)[C@H](Cc1cc(F)cc(F)c1)NC(=O)NS(=O)(=O)N1CCC(c2ccccc2)CC1)c1ccc2scnc2c1 [CA-156] | 8320 | 99200 |
| CN(C(=O)[C@H](Cc1cc(F)cc(F)c1)NC(=O)NS(=O)(=O)N1CCc2ccccc2C1)c1ccc2scnc2c1 [CA-157] | 880 | 99700 |
| CN(C(=O)[C@H](Cc1cc(F)cc(F)c1)NC(=O)NS(=O)(=O)NCCc1ccccc1)c1ccc2scnc2c1 [CA-158] | 340 | > 100000 |
| Cc1ccc(N(C)C(=O)[C@H](Cc2cc(F)cc(F)c2)NC(=O)NS(=O)(=O)N2CCc3cccnc32)cn1 [GW-2] | 70 | > 100000 |
| CCc1ccc(N(C)C(=O)[C@H](Cc2cc(F)cc(F)c2)NC(=O)NS(=O)(=O)N2CCc3cccnc32)cn1 [GW-3] | 20 | > 100000 |
| Cc1ccc(N(C)C(=O)[C@H](Cc2cc(F)cc(F)c2)NC(=O)NS(=O)(=O)N2CCc3cccnc32)nc1 [GW-4] | 220 | > 100000 |
| CN(C(=O)[C@H](Cc1cc(F)cc(F)c1)NC(=O)NS(=O)(=O)N1CCc2cccnc21)c1ccc2sc(=O)[nH]c2c1 [GW-5] | 320 | > 100000 |
| CN(C(=O)[C@H](Cc1cc(F)cc(F)c1)NC(=O)NS(=O)(=O)N1CCc2cccnc21)c1ccc2c(c1)ncn2C [GW-6] | 630 | > 25000 |
| CN(C(=O)[C@H](Cc1cc(F)cc(F)c1)NC(=O)NS(=O)(=O)N1CCc2cccnc21)c1ccc(OC(F)(F)F)cc1 [GW-7] | 30 | 16800 |
| CN(C(=O)[C@H](Cc1cc(F)cc(F)c1)NC(=O)NS(=O)(=O)N1CCc2cccnc21)c1ccc2c(cnn2C)c1 [GW-8] | 100 | > 25000 |
| CN(C(=O)[C@H](Cc1cc(F)cc(F)c1)NC(=O)NS(=O)(=O)N1CCc2cccnc21)c1ccc(C(F)(F)F)nc1 [GW-9] | 180 | 35100 |
| CN(C(=O)[C@H](Cc1cc(F)cc(F)c1)NC(=O)NS(=O)(=O)N1CCc2cccnc21)c1ccc(C2CC2)cc1 [GW-10] | 30 | 91000 |
| COc1ccc(N(C)C(=O)[C@H](Cc2cc(F)cc(F)c2)NC(=O)NS(=O)(=O)N2CCc3cccnc32)cn1 [GW-11] | 90 | > 100000 |
| CN(C(=O)[C@H](Cc1cc(F)cc(F)c1)NC(=O)NS(=O)(=O)N1CCc2cccnc21)c1ccc(C(F)F)nc1 [GW-12] | 120 | > 100000 |
| CN(C(=O)[C@H](Cc1cc(F)cc(F)c1)NC(=O)NS(=O)(=O)N1CCc2cccnc21)c1ccc(OC(F)F)nc1 [GW-13] | 60 | > 100000 |
| Cc1ncc(N(C)C(=O)[C@H](Cc2cc(F)cc(F)c2)NC(=O)NS(=O)(=O)N2CCc3cccnc32)cn1 [GW-14] | 1610 | > 100000 |
| Cc1ncc(N(C)C(=O)[C@H](Cc2cc(F)cc(F)c2)NC(=O)NS(=O)(=O)N2CCc3cccnc32)cc1Cl [GW-15] | 970 | 5100 |
| CN(C(=O)[C@H](Cc1cc(F)cc(F)c1)NC(=O)NS(=O)(=O)N1CCc2cccnc21)c1cnc2scnc2c1 [GW-16] | 280 | > 100000 |
| CCc1ccc(N(C)C(=O)[C@H](Cc2cc(F)cc(F)c2)NC(=O)NS(=O)(=O)N(C)C)cn1 [GW-17] | 100 | > 100000 |
| CN(C(=O)[C@H](Cc1cc(F)cc(F)c1)NC(=O)NS(=O)(=O)N1CCc2cccnc21)c1cccnc1 [GW-18] | 180 | > 100000 |

| Compound | EC50 [1] [nM] | CC50 at 4 days [2] [nM] |
| --- | --- | --- |
| CN(C(=O)[C@H](Cc1cc(F)cc(F)c1)NC(=O)NS(=O)(=O)N1CCc2cccnc21)c1ccc2sc(=O)n(C)c2c1 [GW-19] | 60 | > 100000 |
| Cc1cc(N(C)C(=O)[C@H](Cc2cc(F)cc(F)c2)NC(=O)NS(=O)(=O)N2CCc3cccnc32)cnc1C [GW-20] | 230 | > 100000 |
| Cc1nc2c(F)c(N(C)C(=O)[C@H](Cc3cc(F)cc(F)c3)NC(=O)NS(=O)(=O)N3CCc4cccnc43)ccc2s1 [GW-21] | 80 | > 100000 |
| CN(C(=O)[C@H](Cc1cc(F)cc(F)c1)NC(=O)NS(=O)(=O)N1CCc2cccnc21)c1ccc2scnc2c1F [GW-22] | 10 | > 100000 |
| [2H]c1nc2cc(N(C)C(=O)[C@H](Cc3cc(F)cc(F)c3)NC(=O)NS(=O)(=O)N3CCc4cccnc43)ccc2s1 [GW-23] | 20 | > 10000 |
| COc1ccc(N(C)C(=O)[C@H](Cc2ccccc2)NC(=O)NS(=O)(=O)N2CCc3ccccc32)cc1 [JB-1] | 110 | > 100000 |
| COc1ccc(N(C)C(=O)[C@H](Cc2ccccc2)NC(=O)NS(=O)(=O)N2CCCc3ccccc32)cc1 [JB-2] | 110 | > 33300 |
| COc1ccc(N(C)C(=O)[C@H](Cc2ccccc2)NC(=O)NS(=O)(=O)N(C)c2ccccc2)cc1 [JB-3] | 130 | > 100000 |
| COc1ccc(N(C)C(=O)[C@H](Cc2ccccc2)NC(=O)NS(=O)(=O)Nc2ccccc2)cc1 [JB-4] | 140 | > 100000 |
| COc1ccc(N(C)C(=O)[C@H](Cc2ccccc2)NC(=O)NS(=O)(=O)Nc2ccccc2Cl)cc1 [JB-5] | 100 | > 100000 |
| COc1ccc(N(C)C(=O)[C@H](Cc2ccccc2)NC(=O)NS(=O)(=O)N(C)c2ccccc2Cl)cc1 [JB-6] | 660 | > 100000 |
| COc1ccc(N(C)C(=O)[C@H](Cc2ccccc2)NC(=O)NS(=O)(=O)N2CCc3ccccc3C2)cc1 [JB-7] | 200 | > 100000 |
| COc1ccc(N(C)C(=O)[C@H](Cc2ccccc2)NC(=O)NS(=O)(=O)N2CC(c3ccccc3)C2)cc1 [JB-8] | 2690 | > 100000 |
| COc1ccc(N(C)C(=O)[C@H](Cc2ccccc2)NC(=O)NS(=O)(=O)n2c3ccccc3c3ccccc32)cc1 [JB-9] | 440 | 74200 |
| CN(C(=O)[C@H](Cc1ccccc1)NC(=O)NS(=O)(=O)Nc1ccccc1Cl)c1ccc2ncccc2c1 [JB-10] | 50 | > 100000 |
| CN(C(=O)[C@H](Cc1ccccc1)NC(=O)NS(=O)(=O)N(C)c1ccccc1Cl)c1ccc2ncccc2c1 [JB-11] | 40 | > 100000 |
| COc1ccccc1NS(=O)(=O)NC(=O)N[C@@H](Cc1ccccc1)C(=O)N(C)c1ccc2ncccc2c1 [JB-12] | 170 | 57700 |
| COc1ccccc1N(C)S(=O)(=O)NC(=O)N[C@@H](Cc1ccccc1)C(=O)N(C)c1ccc2ncccc2c1 [JB-13] | 260 | > 33300 |
| COc1ccc(N(C)C(=O)[C@H](Cc2ccccc2)NC(=O)NS(=O)(=O)N2CCCCC2)cc1 [JB-14] | 690 | > 100000 |
| COc1ccc(N(C)C(=O)[C@H](Cc2ccccc2)NC(=O)NS(=O)(=O)N(C)C)cc1 [JB-15] | 1920 | > 100000 |

| Compound | EC50 [1] [nM] | CC50 at 4 days [2] [nM] |
| --- | --- | --- |
| COc1ccc(N(C)C(=O)[C@H](Cc2ccccc2)NC(=O)NS(=O)(=O)Nc2ccccc2OC)cc1 [JB-16] | 170 | > 100000 |
| COc1ccc(N(C)C(=O)[C@H](Cc2ccccc2)NC(=O)NS(=O)(=O)Nc2ccccc2C)cc1 [JB-17] | 80 | > 100000 |
| COc1ccc(N(C)C(=O)[C@H](Cc2ccccc2)NC(=O)NS(=O)(=O)N(C)c2ccccc2C)cc1 [JB-18] | 560 | > 100000 |
| COc1ccc(N(C)C(=O)[C@H](Cc2ccccc2)NC(=O)NS(=O)(=O)Nc2cccc(Cl)c2)cc1 [JB-19] | 50 | > 100000 |
| COc1ccc(N(C)C(=O)[C@H](Cc2ccccc2)NC(=O)NS(=O)(=O)Nc2cccc(OC)c2)cc1 [JB-20] | 100 | > 100000 |
| COc1ccc(N(C)C(=O)[C@H](Cc2ccccc2)NC(=O)NS(=O)(=O)Nc2cccnc2)cc1 [JB-21] | 1780 | > 100000 |
| COc1ccc(N(C)C(=O)[C@H](Cc2ccccc2)NC(=O)NS(=O)(=O)Nc2ccc(Cl)cc2)cc1 [JB-22] | 70 | > 100000 |
| COc1ccc(N(C)C(=O)[C@H](Cc2ccccc2)NC(=O)NS(=O)(=O)N(C)c2ccccc2OC)cc1 [JB-23] | 870 | > 100000 |
| COc1ccc(N(C)C(=O)[C@H](Cc2ccccc2)NC(=O)NS(=O)(=O)Nc2cccc(C)c2)cc1 [JB-24] | 100 | > 100000 |
| COc1ccc(N(C)C(=O)[C@H](Cc2ccccc2)NC(=O)NS(=O)(=O)N(C)c2cccc(C)c2)cc1 [JB-25] | 80 | > 100000 |
| COc1ccc(N(C)C(=O)[C@H](Cc2ccccc2)NC(=O)NS(=O)(=O)Nc2ccc(C)cc2)cc1 [JB-26] | 40 | > 100000 |
| COc1ccc(NS(=O)(=O)NC(=O)N[C@@H](Cc2ccccc2)C(=O)N(C)c2ccc(OC)cc2)cc1 [JB-27] | 150 | > 100000 |
| COc1ccc(N(C)C(=O)[C@H](Cc2ccccc2)NC(=O)NS(=O)(=O)N(C)c2ccc(OC)cc2)cc1 [JB-28] | 210 | > 100000 |
| COc1ccc(N(C)C(=O)[C@H](Cc2ccccc2)NC(=O)NS(=O)(=O)Nc2ncccn2)cc1 [JB-29] | 1600 | > 100000 |
| COc1ccc(N(C)C(=O)[C@H](Cc2ccccc2)NC(=O)NS(=O)(=O)N(C)CC(=O)N(C)C)cc1 [JB-30] | 1950 | > 100000 |
| COc1ccc(N(C)C(=O)[C@H](Cc2ccccc2)NC(=O)NS(=O)(=O)N2CCc3cccnc32)cc1 [JB-31] | 140 | > 100000 |
| COc1ccc(N(C)C(=O)[C@H](Cc2ccccc2)NC(=O)NS(=O)(=O)Nc2nccc3ccccc23)cc1 [JB-32] | 1450 | > 100000 |
| COc1ccc(N(C)C(=O)[C@H](Cc2ccccc2)NC(=O)NS(=O)(=O)NCCc2ccccc2)cc1 [JB-33] | 680 | > 100000 |
